The source of these data is PubChem BioAssay (NCI).

Some test systems named below: 786-0 renal; A498 renal; CAKI-1 renal; HCC-2998 colon; OVCAR-5 ovarian; OVCAR-8 ovarian; RPMI-8226 leukemia; SK-MEL-2 melanoma; U251 CNS; UO-31 renal; SF-539 CNS; SR leukemia.
What all share (test): NCI anticancer screen, dose series, 48 h

Each structure is given as a SMILES string.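 Results reflect a 48-hour exposure of cells in 96-well plates to compound at five concentrations. Abbreviation: GI50, concentration required for 50% inhibition of growth. TGI marks complete inhibition of growth.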 Where a SMILES comes first, the peptide text is derived from it. The star is where a group is joined. Boc = CC(C)(C)OC(=O)*; nBu = CCCC* Where only a bound is given, the exact number is not on record here.

On to `CN(CCc1ccccn1)c1ccc2c(c1)C(=O)c1ccccc1-2`, for which the TGI with 786-0 renal, in the assay with A498 renal, with CAKI-1 renal, in the assay on HCC-2998 colon, in the assay on OVCAR-5 ovarian and with OVCAR-8 ovarian was over 100 µM each time. Besides, the TGI in the assay on RPMI-8226 leukemia, with SK-MEL-2 melanoma, in the assay on U251 CNS and with UO-31 renal was over 100 µM in each case.

With `CCOc1nc2c(N3CCCC3)nc(N3CCNCC3)nc2nc1NCc1ccccc1`, the TGI with 786-0 renal worked out at 2.68 µM; with CAKI-1 renal, 6.71 µM; in the assay with HCC-2998 colon, 2.62 µM; in the assay with OVCAR-5 ovarian, 16.3 µM; in the assay with OVCAR-8 ovarian, 4.1 µM; in the assay on RPMI-8226 leukemia it was 3.37 µM. Moreover, the TGI with SF-539 CNS was 2.85 µM; in the assay with SK-MEL-2 melanoma it was 3.11 µM; in the assay with SR leukemia, 3.12 µM; in the assay with U251 CNS, 2.39 µM; with UO-31 renal, 2.6 µM.

In the case of `O=P(NCCCO)(OCc1ccccc1)N(CCCl)CCCl` (stereo not given), the TGI in the assay on A498 renal, in the assay on CAKI-1 renal, with HCC-2998 colon, in the assay on OVCAR-5 ovarian, in the assay on OVCAR-8 ovarian and in the assay with SF-539 CNS was over 100 µM each time. Moreover, the TGI in the assay with SK-MEL-2 melanoma, in the assay on U251 CNS and in the assay with UO-31 renal was over 100 µM each time.

`O=[N+]([O-])c1ccc(N=Nc2c(O)[nH]c3ccccc23)c([N+](=O)[O-])c1`: the TGI amounted to 28.8 µM in the assay with 786-0 renal; 79.4 µM in the assay on A498 renal; 43.9 µM in the assay with CAKI-1 renal; 44.1 µM in the assay with HCC-2998 colon; 50.2 µM with OVCAR-5 ovarian; 27.8 µM with OVCAR-8 ovarian. The TGI with RPMI-8226 leukemia was over 100 µM; with SF-539 CNS, 10.2 µM; in the assay with SR leukemia, over 100 µM; with U251 CNS it was 47.8 µM; with UO-31 renal it was 36.6 µM.

As to `CC(C)CC(N)C(=O)NC(C(=O)NC(CCCNC(=N)N)C(=O)NC(CS)C(=O)NC1CSCC(C(=O)NC(Cc2ccccc2)C(=O)NC(C(=O)NC(CCCNC(=N)N)C(=O)O)C(C)C)NC(=O)C2CCCN2C(=O)C(CCCCN)NC(=O)C2CCCN2C(=O)C2CCCN2C(=O)C(Cc2ccc(O)cc2)NC(=O)C(CO)NC(=O)C(CCCCN)NC(=O)C(C(C)O)NC(=O)C(Cc2c[nH]c3ccccc23)NC1=O)C(C)C` (stereo not given), the TGI in the assay on 786-0 renal, in the assay on A498 renal, with CAKI-1 renal, with OVCAR-5 ovarian, with OVCAR-8 ovarian and in the assay with RPMI-8226 leukemia was over 25 µM each time. The TGI in the assay with SF-539 CNS, with SK-MEL-2 melanoma, in the assay with SR leukemia, with U251 CNS and in the assay on UO-31 renal was over 25 µM throughout.

On to `CN1CCC(C(O)(c2ccccc2)c2ccc(Br)cc2)CC1` (stereo not given), for which the TGI is 27.5 µM with 786-0 renal; over 100 µM with CAKI-1 renal; 25.1 µM in the assay with HCC-2998 colon; 93.3 µM with OVCAR-5 ovarian; over 100 µM in the assay on OVCAR-8 ovarian; 45.8 µM with RPMI-8226 leukemia. Also, the TGI in the assay with SF-539 CNS was 32.2 µM; with SK-MEL-2 melanoma it was 30.3 µM; with SR leukemia, 47.6 µM; in the assay on U251 CNS, 43.1 µM; in the assay with UO-31 renal, 33.1 µM.

Turning to `C#C[C@]1(O)CC[C@H]2[C@@H]3CCc4cc(O)ccc4[C@H]3CC[C@@]21C`, the TGI in the assay with 786-0 renal is over 100 µM; with A498 renal, 77.4 µM; in the assay with CAKI-1 renal, over 100 µM; in the assay with HCC-2998 colon, 73.8 µM; in the assay on OVCAR-5 ovarian, over 100 µM; in the assay on OVCAR-8 ovarian it was over 100 µM. Besides, the TGI in the assay with SF-539 CNS was 40.4 µM; in the assay on SK-MEL-2 melanoma, 82.9 µM; in the assay on SR leukemia it was over 100 µM.

For `CC(=O)c1ccc(Nc2c3ccccc3nc3occc23)cc1`, the TGI in the assay with 786-0 renal is 3.19 µM; with A498 renal, 12.6 µM; in the assay with CAKI-1 renal, 4.68 µM; in the assay on HCC-2998 colon, 0.794 µM; in the assay with OVCAR-5 ovarian, over 100 µM; in the assay on OVCAR-8 ovarian, 7.01 µM. Moreover, the TGI was 4.28 µM in the assay on RPMI-8226 leukemia; 0.0645 µM with SK-MEL-2 melanoma; 18.5 µM in the assay with SR leukemia; over 4.64 µM with U251 CNS; over 100 µM in the assay with UO-31 renal.

With `COc1cc(C2S/C(=C/c3ccccc3)C(=O)N2c2cccc(NC(C)=O)c2)cc(OC)c1OC` (stereo not given), the TGI in the assay on A498 renal was 93.7 µM; in the assay on CAKI-1 renal, over 100 µM; in the assay on HCC-2998 colon, over 100 µM; in the assay on OVCAR-5 ovarian, over 100 µM; with OVCAR-8 ovarian, over 100 µM; in the assay on SR leukemia it was over 100 µM. Besides, the TGI with U251 CNS is 50.8 µM; in the assay on UO-31 renal it was over 100 µM.

On to `COc1ccc(C2C3CCc4ccccc4C3=NN2S(=O)(=O)c2cccc(C(=O)O)c2OC)cc1` (stereo not given), for which the TGI in the assay on 786-0 renal was over 100 µM; in the assay on CAKI-1 renal, over 100 µM; in the assay on OVCAR-5 ovarian, over 100 µM; in the assay on OVCAR-8 ovarian, over 100 µM; in the assay on RPMI-8226 leukemia, 54.7 µM; with SF-539 CNS, 22 µM. Further, the TGI in the assay on SK-MEL-2 melanoma was 60 µM; in the assay with SR leukemia, over 100 µM; in the assay on U251 CNS, 34.9 µM; in the assay with UO-31 renal, over 100 µM.

In the case of `O=C(O)c1cc2ccccc2c(N=Nc2ccc(S(=O)(=O)Nc3ncccn3)cc2)c1O`, the TGI in the assay on 786-0 renal, in the assay with CAKI-1 renal, with HCC-2998 colon, in the assay on OVCAR-5 ovarian, in the assay with OVCAR-8 ovarian and in the assay with RPMI-8226 leukemia was over 100 µM in each case. The TGI in the assay on SF-539 CNS, in the assay with SK-MEL-2 melanoma, with SR leukemia, in the assay on U251 CNS and in the assay with UO-31 renal was over 100 µM throughout.

Take `Nc1nc(SCC(=O)c2ccc(Br)cc2)c2[nH]cnc2n1`: the TGI in the assay with 786-0 renal, with A498 renal, in the assay on CAKI-1 renal, with OVCAR-5 ovarian, in the assay with OVCAR-8 ovarian and in the assay with RPMI-8226 leukemia was over 100 µM throughout. In addition, the TGI in the assay on SK-MEL-2 melanoma, in the assay on SR leukemia, with U251 CNS and in the assay on UO-31 renal was over 100 µM throughout.

Consider `COc1ccc(CCn2cncn2)cc1`, for which the TGI with HCC-2998 colon, with OVCAR-5 ovarian, with SF-539 CNS, with SR leukemia, with U251 CNS and with UO-31 renal was over 100 µM each time.

Turning to `Cc1ccc(-c2cn3c(nc4ccccc43)c(/C=C/c3ccco3)n2)cc1`, the TGI is over 100 µM in the assay with 786-0 renal; over 100 µM with A498 renal; over 100 µM in the assay with HCC-2998 colon; over 100 µM in the assay on OVCAR-5 ovarian; 67.7 µM in the assay on RPMI-8226 leukemia; over 100 µM in the assay on SF-539 CNS. In addition, the TGI was 72.9 µM with SK-MEL-2 melanoma, 89 µM in the assay with SR leukemia, over 100 µM in the assay on U251 CNS and over 100 µM in the assay on UO-31 renal.

For the compound `N#C/C(=C(/O)CCl)c1nc2ccccc2o1`, the TGI with 786-0 renal came out at 41.3 µM; with A498 renal, 4.4 µM; with CAKI-1 renal, 22.6 µM; in the assay on OVCAR-8 ovarian, 14.9 µM; in the assay with RPMI-8226 leukemia it was 7.87 µM; in the assay on SF-539 CNS it was 8.74 µM. Moreover, the TGI in the assay on SK-MEL-2 melanoma worked out at 11.6 µM; in the assay on SR leukemia, 15 µM; with U251 CNS, 23.8 µM; in the assay with UO-31 renal it was 12.7 µM.

Take `CN(C)c1ccc(-c2ccc(-c3ccc(C(=N)N)cn3)o2)cc1`: the GI50 in the assay on OVCAR-5 ovarian is 1.62 µM; in the assay with SF-539 CNS it was 1.54 µM; in the assay with SK-MEL-2 melanoma it was 1.96 µM; with SR leukemia, 0.378 µM; with U251 CNS, 1.53 µM; in the assay on UO-31 renal, 1.48 µM. Besides, the TGI turned out to be 3.02 µM in the assay with OVCAR-5 ovarian; 2.9 µM in the assay with SF-539 CNS; 3.65 µM in the assay with SK-MEL-2 melanoma; 2.01 µM with SR leukemia; 2.91 µM in the assay with U251 CNS; 2.91 µM in the assay on UO-31 renal.

Regarding `C=C1C(O)C2(O)OCC34C(CC5C(C)=CC(=O)C(O)C5(C)C23)OC(=O)C(OC(=O)C/C=C/CCCCCCCC)C14` (stereo not given), the TGI in the assay with A498 renal was 0.0324 µM; in the assay on CAKI-1 renal, 0.232 µM; in the assay with HCC-2998 colon, 0.0308 µM; with OVCAR-5 ovarian, 0.773 µM; with OVCAR-8 ovarian, 0.0241 µM; in the assay on RPMI-8226 leukemia it was 0.0249 µM. The TGI with SF-539 CNS was found to be 0.0372 µM; with SK-MEL-2 melanoma it was 0.0361 µM; in the assay on U251 CNS it was 0.0227 µM; with UO-31 renal it was 0.231 µM.

On to `CCCCOc1ccc(CC(NC(=O)OC(C)(C)C)C(=O)NC(C)C(=O)NC(Cc2ccccc2)C(=O)NCC(N)=O)cc1` (stereo not given) (Boc-Y(nBu)AFG-NH2; configuration not given here), for which the TGI in the assay with 786-0 renal, in the assay with A498 renal, in the assay on CAKI-1 renal, with HCC-2998 colon, with OVCAR-5 ovarian and in the assay with OVCAR-8 ovarian was over 100 µM in each case. Further, the TGI with RPMI-8226 leukemia is over 100 µM; in the assay with SF-539 CNS, over 100 µM; in the assay on SK-MEL-2 melanoma, 51 µM; with U251 CNS it was over 100 µM; in the assay with UO-31 renal it was over 100 µM.

In the case of `CCCCCCCCCCCCCCCc1nc(=S)[nH][nH]1`, the TGI with A498 renal, with HCC-2998 colon, in the assay with OVCAR-5 ovarian, in the assay on RPMI-8226 leukemia, in the assay on SF-539 CNS and in the assay on SK-MEL-2 melanoma was over 100 µM in each case. Further, the TGI in the assay on SR leukemia, in the assay on U251 CNS and with UO-31 renal was over 100 µM in each case.
